The target of this assay is T1, human PAD4 (Homo sapiens, UniProt Q9UM07).
T1 construct: human PAD4 (NM_012387), A2-P663, was PCR amplified; His-SUMO (N, cleaved yes); made in house; host or cells: E. coli BL21(DE3)
The assay can be described thus: In vitro PAD4 BAEE biochemical assay. The settings on record: BAEE substrate 3 mM, 5 nM PAD4, 2 mM calcium chloride; geometric mean of multiple experiments. Put shortly: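 Assay was run at 25 °C using 3 mM BAEE and 5 nM human PAD4 after a 30 min compound preincubation; ammonia produced over 2 h was quantified by OPA-derived fluorescence. Full inhibition was defined by 50 µM BB-Cl-Amidine, and IC50 came from variable-slope nonlinear regression.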

Our source for the IC50 values is patent US11976083B2, “Inhibitors of peptidylarginine deiminases” (Gilead Sciences, Inc., priority 2020, dated 2024).

The term IC50 denotes the concentration at which inhibition is half-maximal.

T1 sequence (Q9UM07 2-663): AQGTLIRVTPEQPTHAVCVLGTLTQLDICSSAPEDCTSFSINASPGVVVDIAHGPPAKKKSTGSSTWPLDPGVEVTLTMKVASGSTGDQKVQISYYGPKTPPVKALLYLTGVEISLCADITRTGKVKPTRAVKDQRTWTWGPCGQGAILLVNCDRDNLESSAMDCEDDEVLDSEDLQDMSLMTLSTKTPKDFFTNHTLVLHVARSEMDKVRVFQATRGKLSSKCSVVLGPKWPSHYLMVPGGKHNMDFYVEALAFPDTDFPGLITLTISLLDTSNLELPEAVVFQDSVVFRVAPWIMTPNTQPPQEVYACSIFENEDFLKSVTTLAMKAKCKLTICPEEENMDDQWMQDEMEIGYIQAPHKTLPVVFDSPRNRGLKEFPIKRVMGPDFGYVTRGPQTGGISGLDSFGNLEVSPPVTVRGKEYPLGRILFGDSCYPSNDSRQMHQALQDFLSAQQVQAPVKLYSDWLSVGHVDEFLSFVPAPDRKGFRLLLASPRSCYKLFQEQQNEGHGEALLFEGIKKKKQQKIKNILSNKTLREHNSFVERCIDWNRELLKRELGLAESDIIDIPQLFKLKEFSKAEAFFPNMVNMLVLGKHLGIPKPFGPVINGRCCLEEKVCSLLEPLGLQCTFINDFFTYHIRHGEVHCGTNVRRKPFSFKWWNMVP

`COc1cc(C(=O)N2CC[C@@H](OC)[C@@H](N)C2)cc2nc(-c3cc4ccc5nc4n3CCCCC[C@@H]3C[C@H]3C(=O)N[C@@H]5C)n(C)c12` [Example 174, (2~{R},5~{R},7~{R})-14-[5-[(3~{S),4~{R})-3-amino-4-methoxy-piperidine-1-carbonyl]-7-methoxy-1-methyl-benzimidazol-2-yl]-2-methyl-3,13,19-triazatetracyclo[11.5.2.0^{5,7}.0^{16,20}] icosa-1(19),14,16(20),17-tetraen-4-one]: the half-inhibitory concentration (IC50) came to 80 nM.

Turning to `COc1cc(C(=O)N2CC[C@@H](OC)[C@@H](N)C2)cc2nc(-c3cc4ccc5nc4n3CCCCCc3nccc(Cl)c3C(=O)N[C@@H]5C)n(C)c12` [Example 831, (2~{R})-17-[5-[(3~{S}, 4~{R})-3-amino-4-methoxy-piperidine-1-carbonyl]-7-methoxy-1-methyl-benzimidazol-2-yl]-6-chloro-2-methyl-3,9,16,22-tetrazatetracyclo [14.5.2.0^{5,10}.0^{19,23}] tricosa-1(22),5(10),6,8, 17,19(23),20-heptaen-4-one], the half-maximal inhibitory concentration (IC50) was found to be 75 nM. For `[2H]C([2H])([2H])O[C@@H]1CCN(C(=O)c2cc(OC)c3c(c2)nc(-c2cc4ccc5nc4n2CCCCCc2cncc(F)c2C(=O)N[C@@H]5C)n3C)C[C@@H]1N` [Example 659, (2~{R})-17-[5-[(3~{S),4~{R})-3-amino-4-(trideuteriomethoxy)piperidine-1-carbonyl]-7-methoxy-1-methyl-benzimidazol-2-yl]-6-fluoro-2-methyl-3,8,16,22-tetrazatetracyclo[14.5.2.0^ {5,10}.0^{19,23}] tricosa-1(22),5,7,9,17,19(23), 20-heptaen-4-one] the value was 32 nM; for `COc1cc(C(=O)N2C[C@H](N)[C@@H]3CC[C@H]2C3)cc2nc(-c3cc4ccc5nc4n3CCCCCC[C@@](c3ccccn3)(C(F)F)C(=O)N[C@@H]5C)n(C)c12` [Example 890, (8~{S},11~{R})-17-[5-[(1~{S},4~{R},5~{R})-4-amino-2-azabicyclo[3.2.1]octane-2-carbonyl]-7-methoxy-1-methyl-benzimidazol-2-yl]-8-(difluoromethyl)-11-methyl-8-(2-pyridyl)-1,10,19-triazatricyclo [10.5.2.0^{15,18}]nonadeca-12(19),13,15(18), 16-tetraen-9-one], 10 nM.

Turning to `C[C@H]1NC(=O)c2cnc(Cl)cc2CCCCCn2c(-c3nc4cc(C(=O)N5C[C@H](N)[C@@H]6CC[C@H]5C6)cc(F)c4n3C3CC3)cc3ccc1nc32` [Example 810, (2~{R})-17-[5-[(1~{S),4~{R},5~ {R})-4-amino-2-azabicyclo [3.2.1]octane-2-carbonyl]-1-cyclopropyl-7-fluoro-benzimidazol-2-yl]-8-chloro-2-methyl-3,7,16,22-tetrazatetracyclo[14.5.2.0^ {5,10}.0^{19,23}] tricosa-1(21),5(10),6,8,17,19, 22-heptaen-4-one], the IC50 is 25 nM.

For `COc1cc(C(=O)N2C[C@H](N)[C@@H]3CC[C@H]2C3)cc2nc(-c3cc4ccc5nc4n3CCCCCc3cc(Cl)ncc3C(=O)N[C@@H]5C)n(C)c12` [Example 665, (2~{R})-17-[5-[(1~{S),4~{R}, 5~{R})-4-amino-2-azabicyclo[3.2.1]octane-2-carbonyl]-7-methoxy-1-methyl-benzimidazol-2-yl]-8-chloro-2-methyl-3,7,16,22-tetrazatetracyclo[14.5.2.0^ {5,10).0^{19,23}]tricosa-1(22),5(10),6,8,17,19(23),20-heptaen-4-one], the half-inhibitory concentration (IC50) worked out at 26 nM.

On to `C[C@H]1NC(=O)[C@@H]2C[C@@]2(F)CCCCCn2c(-c3nc4cc(C(=O)N5C[C@H](N)[C@@H]6CC[C@H]5C6)cc(F)c4n3CC(F)F)cc3ccc1nc32` [Example 920, (2~{R},5~{S},7~{S})-14-[5-[(1~{S),4~{R},5~{R})-4-amino-2-azabicyclo[3.2.1]octane-2-carbonyl]-1-(2,2-difluoroethyl)-7-fluoro-benzimidazol-2-yl]-7-fluoro-2-methyl-3,13,19-triazatetracyclo [11.5.2.0^{5,7}.0^{16,20}] icosa-1(19),14,16(20),17-tetraen-4-one], for which the IC50 amounted to 21 nM. With `COCCn1c(-c2cc3ccc4nc3n2CCCCC[C@@H]2C[C@H]2C(=O)N[C@@H]4C)nc2cc(C(=O)N3CC[C@@H](OC)[C@@H](N)C3)cc(OC)c21` [Example 432, (2~{R},5~{R},7~{R})-14-[5-[(3~{S},4~{R})-3-amino-4-methoxy-piperidine-1-carbonyl]-7-methoxy-1-(2-methoxyethyl)benzimidazol-2-yl]-2-methyl-3,13,19-triazatetracyclo[11.5.2.0^{5,7}.0^{16,20}] icosa-1(19),14,16(20),17-tetraen-4-one], the IC50 amounted to 161 nM.

With `C[C@H]1NC(=O)[C@@H]2C[C@H]2CCCCCn2c(-c3nc4cc(C(=O)N[C@H]5CNCC[C@@H]5F)cc(C(F)(F)F)c4n3C)cc3ccc1nc32` [Example 562, ~{N}-[(3~{S},4~{S})-4-fluoro-3-piperidyl]-1-methyl-2-[(2~{R},5~{R},7~ {R})-2-methyl-4-oxo-3,13,19-triazatetracyclo [11.5.2.0^{5,7}.0^{16,20}]icosa-1(19),14,16(20), 17-tetraen-14-yl]-7-(trifluoromethyl) benzimidazole-5-carboxamide], the half-maximal inhibitory concentration (IC50) was 466 nM.

Consider `C[C@H]1NC(=O)[C@@H]2C[C@H]2CCCCCn2c(-c3nc4cc(C(=O)N[C@H]5CNCC[C@@H]5F)c(F)cc4n3CC3(F)CC3)cc3ccc1nc32` [Example 405, 6-fluoro-1-[(1-fluorocyclopropyl)methyl]-~{N}-[(3~{S},4~{S})-4-fluoro-3-piperidyl]-2-[(2~{R},5~{R},7~{R})-2-methyl-4-oxo-3,13,19-triazatetracyclo[11.5.2.0^{5,7}.0^{16,20}]icosa-1(19),14,16(20),17-tetraen-14-yl]benzimidazole-5-carboxamide], for which the IC50 came to 27 nM. For `C[C@H]1NC(=O)c2cnc(C(F)(F)F)cc2CCCCCn2c(-c3nc4cc(C(=O)N5C[C@H](N)[C@@H]6CC[C@H]5C6)cc(F)c4n3C3CC3)cc3ccc1nc32` [Example 844, (2~{R})-17-[5-[(1~{S},4~ {R},5~{R})-4-amino-2-azabicyclo [3.2.1]octane-2-carbonyl]-1-cyclopropyl-7-fluoro-benzimidazol-2-yl]-2-methyl-8-(trifluoromethyl)-3,7,16,22-tetrazatetracyclo[14.5.2.0^ {5,10).0^{19,23}]tricosa-1(22),5(10),6,8,17,19(23),20-heptaen-4-one], the IC50 was determined as 35 nM. Turning to `[2H]C([2H])([2H])O[C@@H]1CCN(C(=O)c2cc(OC)c3c(c2)nc(-c2cc4ccc5nc4n2CC(F)(F)CCC[C@@H]2C[C@H]2C(=O)N[C@@H]5C)n3C)C[C@@H]1N` [Example 637, (2~{R},5~{R},7~{R})-14-[5-[(3~{S},4~{R})-3-amino-4-(trideuteriomethoxy)piperidine-1-carbonyl]-7-methoxy-1-methyl-benzimidazol-2-yl]-11,11-difluoro-2-methyl-3,13,19-triazatetracyclo[11.5.2.0^ {5,7}.0^{16,20}] icosa-1(19),14,16(20), 17-tetraen-4-one], the concentration for half-maximal inhibition (IC50) is 31 nM.
